Experimental data published in patent US10947254B2, “Methods for treating ulcerative colitis using 3-((1R,3s,5S)-3-((7-((5-methyl-1H-pyrazol-3-yl)amino)-1,6-naphthyridin-5-yl)amino)-8-azabicyclo[3.2.1]octan-8-yl)propanenitrile” (priority 2015, dated 2021).

Columns and labels:
[1] = test system: oxazolone-induced colitis; assay: Mouse model of oxazolone-induced colitis; format: in vivo, BALB/C mice; settings: mice, PO, 1, 3, and/or 10 mg/kg BID (doses up to 10 mg/kg BID)
Experimental: Assay 7: Mouse Model of Oxazalone-Induced Colitis
Oxazolone-induced colitis is an experimental model that has a histological resemblance to human ulcerative colitis (Heller et al. Immunology, 2002, 17, 629-638). Adult BALB/C mice from Harlan were used in the assay. On day 1, animals were lightly anesthetized with isoflurane and the hairs between the shoulder were carefully removed before oxazolone (4%, 150 μL, 4:1 acetone:olive oil formulation) or vehicle solution was slowly applied for skin sensitization. Seven days after skin sensitization, the mice were fasted overnight, anesthetized with isoflurane inhalation, and a 1 mL syringe equipped with a 3.5-F catheter, filled with oxazolone solution, was inserted carefully about 4 cm into the colon of the mouse. Following insertion, 50 μL of the oxazolone solution (1%, 1:1 ethanol:water formulation) was injected very slowly (over 30 sec using an injection pump) into the colon. The catheter was removed and the mice were held vertically (head down) for 2 min to ensure that the entire oxazolone solution remained inside the colon. Drug treatment (PO, BID or TID) or vehicle was initiated a day prior to the oxazolone intrarectal (IR) challenge. Two-day post oxazolone intrarectal challenge, the Disease Activity Index (DAI) was assessed by treatment-blinded experimenters for each mouse according to the criteria score: stool consistency score (0, normal; 2, loose; 4, diarrhea), gross bleeding score (0, absence; 2, blood tinged; 4, presence), and weight loss score (0, none; 1, 1%-5%; 2, 5%-10%; 3, 10%-20%; 4, more than 20%); DAI=average of (stool consistency score+gross bleeding score+weight loss score).
Selected compounds of the invention were tested in the assay. Efficacy in the model is evidenced by a decrease in DAI score as compared with the score from vehicle treated animals.

[2] = test system: IL-13 induced STAT6 phosphorylation in BEAS-2B human lung epithelial cells; settings: BEAS-2B cells
[3] = test system: IL-4 induced STAT6 phosphorylation in THP-1 human monocytic cells; settings: THP-1 cells

With `Cc1cc(Nc2cc3ncccc3c(N[C@@H]3C[C@H]4CC[C@@H](C3)N4S(=O)(=O)C3CC3)n2)n[nH]1` [Example 4-4] the “decrease in DAI score as compared with vehicle treated animals” value (shortened to “decrease in DAI score”) [1] was “did not exhibit a statistically significant decrease”.

For `Cc1cc(Nc2cc3ncccc3c(N[C@@H]3C[C@H]4CC[C@@H](C3)N4C(=O)C(F)F)n2)n[nH]1` [Example 5, 2,2-difluoro-1-((1R,3s,5S)-3-((7-((5-methyl-1H-pyrazol-3-yl)amino)-1,6-naphthyridin-5-yl)amino)-8-azabicyclo[3.2.1]octan-8-yl)ethan-1-one], the “decrease in DAI score” value [1] was “statistically significant decrease”.

In the case of `Cc1cc(Nc2cc3ncccc3c(N[C@@H]3C[C@H]4CC[C@@H](C3)N4CCF)n2)n[nH]1` [Example 2, N^5-((1R,3s,5S)-8-(2-fluoroethyl)-8-azabicyclo[3.2.1]octan-3-yl)-N^7-(5-methyl-1H-pyrazol-3-yl)-1,6-naphthyridine-5,7-diamine], the “decrease in DAI score” value [1] was “statistically significant decrease”.

`Cc1cc(Nc2cc3ncccc3c(N[C@@H]3C[C@H]4CC[C@@H](C3)N4S(=O)(=O)c3cccnc3)n2)n[nH]1` [Example 3, N^7-(5-methyl-1H-pyrazol-3-yl)-N^5-((1R,3s,5S)-8-(pyridin-3-ylsulfonyl)-8-azabicyclo[3.2.1]octan-3-yl)-1,6-naphthyridine-5,7-diamine] was tested, and the “decrease in DAI score” value [1] was “statistically significant decrease”.

With `CCOCC(=O)N1[C@@H]2CCC[C@H]1C[C@H](Nc1nc(Nc3cc(C)[nH]n3)cc3ncccc13)C2` [Example 2-17] the “BEAS2B pIC50” value [2] was “A (A represents a pEC50 value ≥7.5 (EC50≤32 nM))” and the “decrease in DAI score” value [1] was “did not exhibit a statistically significant decrease”.

With `Cc1cc(Nc2cc3ncccc3c(N[C@@H]3C[C@H]4CC[C@@H](C3)N4S(=O)(=O)Cc3ccccc3)n2)n[nH]1` [Example 4-13] the “BEAS2B pIC50” value [2] was “A (A represents a pEC50 value ≥7.5 (EC50≤32 nM))” and the “decrease in DAI score” value [1] was “did not exhibit a statistically significant decrease”.

With `Cc1cc(Nc2cc3ncccc3c(N[C@@H]3C[C@H]4CCC[C@@H](C3)N4S(=O)(=O)c3ccccc3)n2)n[nH]1` [Example 9, N^7-(5-methyl-1H-pyrazol-3-yl)-N^5-((1R,3s,5S)-9-(phenylsulfonyl)-9-azabicyclo[3.3.1]nonan-3-yl)-1,6-naphthyridine-5,7-diamine] the “decrease in DAI score” value [1] was “did not exhibit a statistically significant decrease”.

In the case of `Cc1cc(Nc2cc3ncccc3c(N[C@@H]3C[C@H]4CCC[C@@H](C3)N4CC(=O)N(C)C)n2)n[nH]1` [Example 1-38], the “decrease in DAI score” value [1] was “statistically significant decrease”.

With `Cc1cc(Nc2cc3nc(CO)ccc3c(N[C@@H]3C[C@H]4CC[C@@H](C3)N4CCC#N)n2)n[nH]1` [Example 5-11] the “decrease in DAI score” value [1] was “did not exhibit a statistically significant decrease” and the “THP-1 IL4 pIC50” value [3] was “A (A represents a pEC50 value ≥7.5 (EC50≤32 nM))”.

`CCC(=O)N1[C@@H]2CC[C@H]1C[C@H](Nc1nc(Nc3cc(C)[nH]n3)cc3ncccc13)C2` [Example 2-1] was tested, and the “decrease in DAI score” value [1] was “did not exhibit a statistically significant decrease”.

With `CCS(=O)(=O)N1[C@@H]2CC[C@H]1C[C@H](Nc1nc(Nc3cc(C)[nH]n3)cc3ncccc13)C2` [Example 7, N^5-((1R,3s,5S)-8-(ethylsulfonyl)-8-azabicyclo[3.2.1]octan-3-yl)-N^7-(5-methyl-1H-pyrazol-3-yl)-1,6-naphthyridine-5,7-diamine] the “decrease in DAI score” value [1] was “did not exhibit a statistically significant decrease”.

`Cc1cc(Nc2cc3ncccc3c(N[C@@H]3C[C@H]4CCC[C@@H](C3)N4C(=O)C(C)(C)CO)n2)n[nH]1` [Example 2-22] was tested, and the “BEAS2B pIC50” value [2] was “A (A represents a pEC50 value ≥7.5 (EC50≤32 nM))” and the “decrease in DAI score” value [1] was “did not exhibit a statistically significant decrease”.

`Cc1cc(Nc2cc3nc(CO)ccc3c(N[C@@H]3C[C@H]4CC[C@@H](C3)N4C(=O)OCC(C)C)n2)n[nH]1` [Example 12, Isobutyl (1R,3s,5S)-3-((2-(hydroxymethyl)-7-((5-methyl-1H-pyrazol-3-yl)amino)-1,6-naphthyridin-5-yl)amino)-8-azabicyclo[3.2.1]octane-8-carboxylate] was tested, and the “decrease in DAI score” value [1] was “statistically significant decrease”.

`Cc1cc(Nc2cc3ncccc3c(N[C@@H]3C[C@H]4CCC[C@@H](C3)N4S(=O)(=O)CC3CC3)n2)n[nH]1` [Example 4-23] was tested, and the “BEAS2B pIC50” value [2] was “A (A represents a pEC50 value ≥7.5 (EC50≤32 nM))”, the “decrease in DAI score” value [1] was “did not exhibit a statistically significant decrease” and the “THP-1 IL4 pIC50” value [3] was “A (A represents a pEC50 value ≥7.5 (EC50≤32 nM))”.

With `Cc1cc(Nc2cc3ncccc3c(N[C@@H]3C[C@H]4CCC[C@@H](C3)N4S(=O)(=O)N3CC(C#N)C3)n2)n[nH]1` [Example 11] the “decrease in DAI score” value [1] was “did not exhibit a statistically significant decrease”.

In the case of `Cc1cc(Nc2cc3ncccc3c(N[C@@H]3C[C@H]4CC[C@@H](C3)N4S(=O)(=O)CC(C)C)n2)n[nH]1` [Example 4-3], the “BEAS2B pIC50” value [2] was “A (A represents a pEC50 value ≥7.5 (EC50≤32 nM))”, the “decrease in DAI score” value [1] was “did not exhibit a statistically significant decrease” and the “THP-1 IL4 pIC50” value [3] was “A (A represents a pEC50 value ≥7.5 (EC50≤32 nM))”.

With `Cc1cc(Nc2cc3ncccc3c(NC3CC4CCCC(C3)N4C(=O)C(C)O)n2)n[nH]1` (stereo not shown) [Example 2-16] the “decrease in DAI score” value [1] was “did not exhibit a statistically significant decrease”.

`Cc1cc(Nc2cc3ncccc3c(N[C@@H]3C[C@H]4CCC[C@@H](C3)N4S(=O)(=O)C3CC3)n2)n[nH]1` [Example 4-18] was tested, and the “BEAS2B pIC50” value [2] was “A (A represents a pEC50 value ≥7.5 (EC50≤32 nM))”, the “decrease in DAI score” value [1] was “did not exhibit a statistically significant decrease” and the “THP-1 IL4 pIC50” value [3] was “A (A represents a pEC50 value ≥7.5 (EC50≤32 nM))”.

With `Cc1cc(Nc2cc3ncccc3c(N[C@@H]3C[C@H]4CCC[C@@H](C3)N4C(=O)Cc3ccccc3)n2)n[nH]1` [Example 2-24] the “BEAS2B pIC50” value [2] was “A (A represents a pEC50 value ≥7.5 (EC50≤32 nM))”, the “decrease in DAI score” value [1] was “did not exhibit a statistically significant decrease” and the “THP-1 IL4 pIC50” value [3] was “A (A represents a pEC50 value ≥7.5 (EC50≤32 nM))”.

In the case of `COCCS(=O)(=O)N1[C@@H]2CC[C@H]1C[C@H](Nc1nc(Nc3cc(C)[nH]n3)cc3ncccc13)C2` [Example 6, N^5-((1R,3s,5S)-8-((2-methoxyethyl)sulfonyl)-8-azabicyclo[3.2.1]octan-3-yl)-N^7-(5-methyl-1H-pyrazol-3-yl)-1,6-naphthyridine-5,7-diamine], the “decrease in DAI score” value [1] was “statistically significant decrease”.

`Cc1cc(Nc2cc3ncccc3c(N[C@@H]3C[C@H]4CCC[C@@H](C3)N4S(=O)(=O)c3cccnc3)n2)n[nH]1` [Example 8, N^7-(5-methyl-1H-pyrazol-3-yl)-N^5-((1R,3s,5S)-9-(pyridin-3-ylsulfonyl)-9-azabicyclo[3.3.1]nonan-3-yl)-1,6-naphthyridine-5,7-diamine] was tested, and the “decrease in DAI score” value [1] was “statistically significant decrease”.

With `Cc1cc(Nc2cc3ncccc3c(N[C@@H]3C[C@H]4CCC[C@@H](C3)N4C(=O)CN(C)C)n2)n[nH]1` [Example 4, 2-(Dimethylamino)-1-((1R,3s,5S)-3-((7-((5-methyl-1H-pyrazol-3-yl)amino)-1,6-naphthyridin-5-yl)amino)-9-azabicyclo[3.3.1]nonan-9-yl)ethan-1-one] the “decrease in DAI score” value [1] was “statistically significant decrease”.

With `CCC(C)C(=O)N1C2CCC1CC(Nc1nc(Nc3cc(C)[nH]n3)cc3ncccc13)C2` (stereo not shown) [Example 2-6] the “BEAS2B pIC50” value [2] was “A (A represents a pEC50 value ≥7.5 (EC50≤32 nM))” and the “decrease in DAI score” value [1] was “did not exhibit a statistically significant decrease”.

For `Cc1cc(Nc2cc3ncccc3c(N[C@@H]3C[C@H]4CC[C@@H](C3)N4S(=O)(=O)N3CC(C#N)C3)n2)n[nH]1` [Example 13], the “decrease in DAI score” value [1] was “did not exhibit a statistically significant decrease”.

In the case of `COCCS(=O)(=O)N1[C@@H]2CCC[C@H]1C[C@H](Nc1nc(Nc3cc(C)[nH]n3)cc3ncccc13)C2` [Example 4-19], the “BEAS2B pIC50” value [2] was “A (A represents a pEC50 value ≥7.5 (EC50≤32 nM))”, the “decrease in DAI score” value [1] was “did not exhibit a statistically significant decrease” and the “THP-1 IL4 pIC50” value [3] was “A (A represents a pEC50 value ≥7.5 (EC50≤32 nM))”.
